# Test results reported in the supplement of paper PMC10307832.
# Tests used:
# Experiment in all cases: relative viability (nuclei count vs DMSO), 5 days (fraction); higher = more cells survive
# A549 = test system: A549
# In short: (§1)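 Relative viability divides the nuclei count in treated wells by that in vehicle wells. Lung cancer cell lines were seeded in 1536-well plates, dosed by pin tool the next day, and fixed and stained after 5 days in one step with final 0.05% Triton X-100, 1% formaldehyde and 1 ug/ml Hoechst. Dosing was a single drug or a fixed anchor-drug dose plus five library-drug doses (not always all listed) in √10 steps, and values are medians of duplicate plates imaged at 4×.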
# Calu-6 = test system: Calu-6
# In short: as §1
# EBC-1 = test system: EBC-1
# In short: as §1
# IA-LM = test system: IA-LM
# In short: as §1
# LCLC-97TM1 = test system: LCLC-97TM1
# In short: as §1
# NCI-H1299 = test system: NCI-H1299
# In short: as §1
# NCI-H1355 = test system: NCI-H1355
# In short: as §1
# NCI-H1703 = test system: NCI-H1703
# In short: as §1
# NCI-H1993 = test system: NCI-H1993
# In short: as §1
# NCI-H23 = test system: NCI-H23
# In short: as §1
# NCI-H322M = test system: NCI-H322M
# In short: as §1
# NCI-H596 = test system: NCI-H596
# In short: as §1
# UMC-11 = test system: UMC-11
# In short: as §1
smiles,measurement,setting,value
O=c1cc(N2CCOCC2)oc2c(-c3cccc4c3sc3ccccc34)cccc12 + CC1(C)CCC(c2ccc(Cl)cc2)=C(CN2CCN(c3ccc(C(=O)NS(=O)(=O)c4ccc(N[C@H](CCN5CCOCC5)CSc5ccccc5)c(S(=O)(=O)C(F)(F)F)c4)cc3)CC2)C1 [Navitoclax] (partner 0.5 µM),relative viability,A549; first compound 0.01 µM,1.22
same,relative viability,A549; first compound 0.03162 µM,1.17
same,relative viability,A549; first compound 0.1 µM,1.28
same,relative viability,A549; first compound 0.3162 µM,1.23
same,relative viability,A549; first compound 1 µM,1.2
same,relative viability,Calu-6; first compound 0.01 µM,0.795
same,relative viability,Calu-6; first compound 0.03162 µM,0.786
same,relative viability,Calu-6; first compound 0.1 µM,0.967
same,relative viability,Calu-6; first compound 0.3162 µM,0.86
same,relative viability,Calu-6; first compound 1 µM,0.933
same,relative viability,EBC-1; first compound 0.01 µM,0.469
same,relative viability,EBC-1; first compound 0.03162 µM,0.377
same,relative viability,EBC-1; first compound 0.1 µM,0.353
same,relative viability,EBC-1; first compound 0.3162 µM,0.408
same,relative viability,EBC-1; first compound 1 µM,0.406
same,relative viability,IA-LM; first compound 0.01 µM,0.909
same,relative viability,IA-LM; first compound 0.03162 µM,0.667
same,relative viability,IA-LM; first compound 0.1 µM,0.902
same,relative viability,IA-LM; first compound 0.3162 µM,0.561
same,relative viability,IA-LM; first compound 1 µM,0.876
same,relative viability,LCLC-97TM1; first compound 0.01 µM,0.391
same,relative viability,LCLC-97TM1; first compound 0.03162 µM,0.568
same,relative viability,LCLC-97TM1; first compound 0.3162 µM,0.362
same,relative viability,LCLC-97TM1; first compound 1 µM,0.346
same,relative viability,NCI-H1299; first compound 0.01 µM,1.02
same,relative viability,NCI-H1299; first compound 0.03162 µM,1.06
same,relative viability,NCI-H1299; first compound 0.1 µM,1.08
same,relative viability,NCI-H1299; first compound 0.3162 µM,1
same,relative viability,NCI-H1299; first compound 1 µM,1.04
same,relative viability,NCI-H1355; first compound 0.01 µM,0.956
same,relative viability,NCI-H1355; first compound 0.03162 µM,0.981
same,relative viability,NCI-H1355; first compound 0.3162 µM,0.941
same,relative viability,NCI-H1355; first compound 1 µM,0.891
same,relative viability,NCI-H1703; first compound 0.01 µM,1.34
same,relative viability,NCI-H1703; first compound 0.03162 µM,1.28
same,relative viability,NCI-H1703; first compound 0.1 µM,1.24
same,relative viability,NCI-H1703; first compound 0.3162 µM,1.07
same,relative viability,NCI-H1703; first compound 1 µM,1.01
same,relative viability,NCI-H1993; first compound 0.01 µM,1.02
same,relative viability,NCI-H1993; first compound 0.03162 µM,0.953
same,relative viability,NCI-H1993; first compound 0.1 µM,0.976
same,relative viability,NCI-H1993; first compound 0.3162 µM,0.921
same,relative viability,NCI-H1993; first compound 1 µM,0.887
same,relative viability,NCI-H23; first compound 0.01 µM,0.981
same,relative viability,NCI-H23; first compound 0.03162 µM,0.846
same,relative viability,NCI-H23; first compound 0.3162 µM,0.832
same,relative viability,NCI-H23; first compound 1 µM,0.777
same,relative viability,NCI-H322M; first compound 0.01 µM,1.34
same,relative viability,NCI-H322M; first compound 0.03162 µM,1.17
same,relative viability,NCI-H322M; first compound 0.3162 µM,1.19
same,relative viability,NCI-H322M; first compound 1 µM,1.12
same,relative viability,NCI-H596; first compound 0.01 µM,0.928
same,relative viability,NCI-H596; first compound 0.03162 µM,0.945
same,relative viability,NCI-H596; first compound 0.1 µM,0.841
same,relative viability,NCI-H596; first compound 0.3162 µM,0.967
same,relative viability,NCI-H596; first compound 1 µM,1.17
same,relative viability,UMC-11; first compound 0.01 µM,0.302
same,relative viability,UMC-11; first compound 0.03162 µM,0.339
same,relative viability,UMC-11; first compound 0.1 µM,0.255
same,relative viability,UMC-11; first compound 0.3162 µM,0.333
same,relative viability,UMC-11; first compound 1 µM,0.343
O=c1cc(-c2cccc3c2Sc2ccccc2S3)oc(N2CCOCC2)c1 + C[C@]1(O)C[C@@H](c2nc(-c3ccc4ccc(-c5ccccc5)nc4c3)c3c(N)nccn32)C1 [Linsitinib] (partner 1 µM),relative viability,A549; first compound 0.08 µM,0.586
same,relative viability,A549; first compound 0.253 µM,0.863
same,relative viability,A549; first compound 0.8 µM,0.564
same,relative viability,A549; first compound 2.53 µM,0.583
same,relative viability,A549; first compound 8 µM,0.666
same,relative viability,Calu-6; first compound 0.08 µM,0.909
same,relative viability,Calu-6; first compound 0.253 µM,1.08
same,relative viability,Calu-6; first compound 0.8 µM,0.988
same,relative viability,Calu-6; first compound 2.53 µM,0.934
same,relative viability,Calu-6; first compound 8 µM,1.02
same,relative viability,EBC-1; first compound 0.08 µM,0.706
same,relative viability,EBC-1; first compound 0.253 µM,1.14
same,relative viability,EBC-1; first compound 0.8 µM,0.828
same,relative viability,EBC-1; first compound 2.53 µM,0.871
same,relative viability,EBC-1; first compound 8 µM,0.91
same,relative viability,IA-LM; first compound 0.08 µM,0.695
same,relative viability,IA-LM; first compound 0.253 µM,0.919
same,relative viability,IA-LM; first compound 0.8 µM,0.491
same,relative viability,IA-LM; first compound 2.53 µM,0.465
same,relative viability,IA-LM; first compound 8 µM,0.343
same,relative viability,LCLC-97TM1; first compound 0.08 µM,0.18
same,relative viability,LCLC-97TM1; first compound 0.253 µM,0.194
same,relative viability,LCLC-97TM1; first compound 0.8 µM,0.203
same,relative viability,LCLC-97TM1; first compound 2.53 µM,0.188
same,relative viability,LCLC-97TM1; first compound 8 µM,0.185
same,relative viability,NCI-H1299; first compound 0.08 µM,0.987
same,relative viability,NCI-H1299; first compound 0.253 µM,1
same,relative viability,NCI-H1299; first compound 0.8 µM,1.05
same,relative viability,NCI-H1299; first compound 2.53 µM,1.03
same,relative viability,NCI-H1299; first compound 8 µM,0.984
same,relative viability,NCI-H1355; first compound 0.08 µM,0.853
same,relative viability,NCI-H1355; first compound 0.253 µM,0.937
same,relative viability,NCI-H1355; first compound 0.8 µM,0.818
same,relative viability,NCI-H1355; first compound 2.53 µM,0.712
same,relative viability,NCI-H1355; first compound 8 µM,0.689
same,relative viability,NCI-H1703; first compound 0.08 µM,0.237
same,relative viability,NCI-H1703; first compound 0.253 µM,0.636
same,relative viability,NCI-H1703; first compound 0.8 µM,1.02
same,relative viability,NCI-H1703; first compound 2.53 µM,0.779
same,relative viability,NCI-H1703; first compound 8 µM,0.636
same,relative viability,NCI-H1993; first compound 0.08 µM,0.739
same,relative viability,NCI-H1993; first compound 0.253 µM,0.683
same,relative viability,NCI-H1993; first compound 0.8 µM,0.687
same,relative viability,NCI-H1993; first compound 2.53 µM,0.799
same,relative viability,NCI-H1993; first compound 8 µM,0.859
same,relative viability,NCI-H23; first compound 0.08 µM,0.596
same,relative viability,NCI-H23; first compound 0.253 µM,0.738
same,relative viability,NCI-H23; first compound 0.8 µM,0.578
same,relative viability,NCI-H23; first compound 2.53 µM,0.684
same,relative viability,NCI-H23; first compound 8 µM,0.574
same,relative viability,NCI-H322M; first compound 0.08 µM,0.868
same,relative viability,NCI-H322M; first compound 0.253 µM,1.04
same,relative viability,NCI-H322M; first compound 0.8 µM,0.866
same,relative viability,NCI-H322M; first compound 2.53 µM,0.928
same,relative viability,NCI-H322M; first compound 8 µM,0.839
same,relative viability,NCI-H596; first compound 0.08 µM,1.02
same,relative viability,NCI-H596; first compound 0.253 µM,1.2
same,relative viability,NCI-H596; first compound 0.8 µM,1.14
same,relative viability,NCI-H596; first compound 2.53 µM,1.08
same,relative viability,NCI-H596; first compound 8 µM,1.15
same,relative viability,UMC-11; first compound 0.08 µM,1.16
same,relative viability,UMC-11; first compound 0.253 µM,1.17
same,relative viability,UMC-11; first compound 0.8 µM,1.18
same,relative viability,UMC-11; first compound 2.53 µM,1.06
same,relative viability,UMC-11; first compound 8 µM,1.23
